Data as given in PubChem BioAssay AID1996.
≈ marks a conversion by molar mass, not a printed value.

Conditions: buffer; pH 7.4; 200.0 µM

Compared with `COc1ccccc1CCn1c(N)cc(=O)[nH]c1=O`, `COc1cccc2c1SCc1ccccc1C2CC(N)=O` (stereo unspecified) is lower in solubility kinetic: > 39.2 µg/mL for the first, 39.2 µg/mL (≈ 131 µM) for the second.

Going from `Cc1ccc(-c2csc3ncnc(SCC(=O)O)c23)cc1` to `Cc1ccc(SCC(=O)O/N=C(\N)c2cccnc2)cc1`, the solubility kinetic falls from > 47.5 µg/mL to 40 µg/mL (≈ 133 µM).

First: CN(CCc1nnc(N)s1)[N+](=O)[O-]
Second: Cc1ccc(Cc2cnc(NC(=O)C3=NCCN3)s2)cc1
The solubility kinetic of the first is higher: > 30.5 µg/mL for the first, 11.5 µg/mL (≈ 38.3 µM) for the second.

`CCOC(=O)Cc1cc(C)[nH]c1C(=O)OCC` and `COc1ccc(C(=O)COC(=O)c2sc(C)nc2C)cc1F` are within 1.5-fold of each other in solubility kinetic: 34.7 µg/mL (≈ 145 µM) for the first, 36.5 µg/mL (≈ 113 µM) for the second.

`O=C(O)C1=C(Nc2ccccc2)OCC1=O` and `O=C(O)C1CCCN(S(=O)(=O)Cc2ccccc2)C1` (stereo unspecified) cannot be ordered by solubility kinetic: > 32.9 µg/mL for the first, 37.7 µg/mL (≈ 133 µM) for the second.

`CN(CC(=O)Nc1ccc(F)cc1)CC(=O)N1CCCCC1` and `COc1ccc(NC(=O)COC(=O)CC2CCCCC2)cc1` cannot be ordered by solubility kinetic: > 46.1 µg/mL for the first, > 45.8 µg/mL for the second.

First: COc1ccc(Cl)cc1NC(=O)Nc1cc(C)on1
Second: Cc1cc(NC(=O)C(C)SCC(=O)O)no1 (stereo unspecified)
The solubility kinetic of the first is lower: 0.9 µg/mL (≈ 3.19 µM) for the first, > 36.6 µg/mL for the second.

`CC(=O)c1ccc(O)c(CSC2=NCCS2)c1` and `CC(=O)c1ccc(S(=O)(=O)N2CCCCC2C(=O)O)cc1` (stereo unspecified) are within 1.5-fold of each other in solubility kinetic: 35.2 µg/mL (≈ 132 µM) for the first, 45.9 µg/mL (≈ 147 µM) for the second.

Compared with `CC(=O)Nc1ccc(OS(=O)(=O)c2ccccc2C)cc1`, `COc1ccc(C(=O)/C=C2\Sc3ccccc3N2C)cc1` is 50-fold lower in solubility kinetic: 35.2 µg/mL (≈ 115 µM) for the first, 0.7 µg/mL (≈ 2.35 µM) for the second.

`CSCC[C@H](NC(=O)Nc1cccc(Br)c1)C(=O)O` and `Cc1ccc(C(=O)OCC(=O)NC(=O)c2ccccc2)o1` are within 1.5-fold of each other in solubility kinetic: 39.4 µg/mL (≈ 113 µM) for the first, 32.9 µg/mL (≈ 115 µM) for the second.

Compared with `O=C(COC(=O)c1ccco1)Nc1cc(S(=O)(=O)N2CCOCC2)ccc1Cl`, `Cc1ccc(S(=O)(=O)N2CCC3(CC2)OCCO3)cc1` is higher in solubility kinetic: 16.4 µg/mL (≈ 38.2 µM) for the first, > 44.6 µg/mL for the second.

`COc1ccc(C(=O)NC2CC(C)(C)NC(C)(C)C2)cc1OC` and `CCOC(=O)/C(=C\c1ccc(OC)c(OC)c1)C(=O)c1cccnc1` cannot be ordered by solubility kinetic: > 48.1 µg/mL for the first, > 51.2 µg/mL for the second.

Compared with `O=C(CCNC(=O)c1ccccc1Cl)NCc1cccnc1`, `O=C(CNC(=O)Cc1ccc(Cl)cc1)NCc1ccco1` is lower in solubility kinetic: > 47.7 µg/mL for the first, 26.4 µg/mL (≈ 86.1 µM) for the second.

`COc1ccc(C2C(C#N)=C(N)Oc3cc(O)ccc32)cc1C` (stereo unspecified) and `Cc1cccc(NC(=O)c2ccc3c(c2)OCCO3)c1C` are within 1.5-fold of each other in solubility kinetic: 31.5 µg/mL (≈ 102 µM) for the first, 22.1 µg/mL (≈ 78 µM) for the second.

Going from `O=C(C=C1NCCN1)c1ccccc1` to `N#Cc1ccccc1N/C=C/C(=O)c1ccc(Cl)cc1`, the solubility kinetic falls from > 28.2 µg/mL to 0.8 µg/mL (≈ 2.83 µM).

Compared with `Cc1ccc(S(=O)(=O)NCC(=O)NCC2CCCCC2)cc1C`, `O=C(NCC1CCCCC1)c1cccnc1Cl` is lower in solubility kinetic: > 50.8 µg/mL for the first, 31.7 µg/mL (≈ 125 µM) for the second.

Compared with `Cc1cc(C)cc(OCC(=O)N2CCc3ccccc3C2)c1`, `Cc1cc(C)cc(C(=O)Nc2ccc(N3CCCC3)cc2)c1` is 45-fold lower in solubility kinetic: 31.5 µg/mL (≈ 107 µM) for the first, 0.7 µg/mL (≈ 2.38 µM) for the second.

First: CCc1cc(=O)[nH]c(SCC(=O)N2CCOCC2)n1
Second: CCOc1ccc2[nH]c3c(c2c1)CNCC3
The solubility kinetic of the first is higher: > 42.5 µg/mL for the first, 25.9 µg/mL (≈ 120 µM) for the second.

Going from `OC(c1ccccc1)c1nc2ccccc2[nH]1` (stereo unspecified) to `Brc1ccccc1C1N=C(c2ccccc2)NO1` (stereo unspecified), the solubility kinetic falls from > 33.6 µg/mL to 10.5 µg/mL (≈ 34.6 µM).

Going from `NC(=O)c1cc(S(=O)(=O)N2CCCCC2)cs1` to `Cc1cc2oc(=O)cc(CN3CCCCC3)c2cc1C`, the solubility kinetic falls from > 41.2 µg/mL to < 0.6 µg/mL.

Compared with `O=C(Nc1ccc(Nc2ccccc2)cc1)c1ccc(Cl)cc1[N+](=O)[O-]`, `Cn1cc(-c2ccccc2C(N)=O)c(=O)c2ccccc21` is higher in solubility kinetic: < 0.3 µg/mL for the first, > 41.7 µg/mL for the second.

Going from `CN(Cc1ccccc1)C(=O)COC(=O)CCC(=O)c1ccc(Cl)cc1` to `CC(=O)N/C(=C\c1ccccc1)C(=O)OCC(=O)N(C)C1CCS(=O)(=O)C1` (stereo unspecified), the solubility kinetic rises from 9.6 µg/mL (≈ 25.7 µM) to > 59.2 µg/mL.

Going from `CCOc1ccc(N=CNc2ccc(OCC)cc2)cc1` to `CCOc1ccc(CC(=O)N/N=C(\C)c2cccnc2)cc1`, the solubility kinetic rises from 33 µg/mL (≈ 116 µM) to > 44.6 µg/mL.

Going from `Cc1ccc(SCc2cn3ccccc3n2)cc1` to `O=C1Nc2ccccc2Sc2ccccc21`, the solubility kinetic falls from 37 µg/mL (≈ 145 µM) to 1.2 µg/mL (≈ 5.28 µM) (31-fold).

Compared with `CC1(C)CC2CC(C)(CN2C(=O)COC(=O)c2ccc(NC(=O)CC#N)cc2)C1` (stereo unspecified), `COC(=O)c1ccc(-c2ncc[nH]2)cc1` is higher in solubility kinetic: 7.6 µg/mL (≈ 19.1 µM) for the first, > 30.3 µg/mL for the second.

Going from `O=S(=O)(Nc1ccncc1)c1cc(Cl)c(Cl)cc1Cl` to `Cc1ccc(NC(=S)Nc2ccc(OC(F)F)c(Cl)c2)cc1F`, the solubility kinetic rises from 1.6 µg/mL (≈ 4.74 µM) to 3.5 µg/mL (≈ 9.7 µM) (2.2-fold).

Going from `CC(NS(=O)(=O)c1ccc([N+](=O)[O-])cc1)C(=O)NN` (stereo unspecified) to `CC(C)NC(=O)CN1C(=O)c2cccc3cccc1c23`, the solubility kinetic falls from > 43.2 µg/mL to 9.8 µg/mL (≈ 36.5 µM).

First: COC(=O)CC(c1ccc(F)cc1)n1c(C)ccc1C (stereo unspecified)
Second: Cc1cc2ncc(-c3cccs3)nc2cc1C
The solubility kinetic of the first is higher: 15.7 µg/mL (≈ 57 µM) for the first, < 0.3 µg/mL for the second.

First: C=CCn1cc(C=C2C(=O)N(C)C(=O)N(C)C2=O)c2ccccc21
Second: O=C1CC(N2CCN(S(=O)(=O)c3ccccc3F)CC2)C(=O)N1c1ccc(F)cc1F (stereo unspecified)
The solubility kinetic of the first is lower: 0.8 µg/mL (≈ 2.47 µM) for the first, > 68 µg/mL for the second.

`N#Cc1cc2c(nc1S(=O)(=O)Cc1ccccc1)CCCC2` and `c1ccc(C2CN3CCC2CC3)cc1` (stereo unspecified) cannot be ordered by solubility kinetic: 30.7 µg/mL (≈ 98.3 µM) for the first, > 28.1 µg/mL for the second.

`O=C(CN1CCCCCCC1)NC(=O)NC1CCCCC1` gave a solubility kinetic of 30.2 µg/mL (≈ 102 µM).
